{"source": "patent US20240268388A1", "about": "“AGRICULTURAL AND HORTICULTURAL FUNGICIDAL COMPOSITION” (NIPPON SODA CO., LTD., priority 2021, published 2024)", "key": {"[1]": {"tested_on": "wheat leaf blight pathogen (Septoria tritici)", "assay": "Fungicidal test for wheat leaf blight (microplate, turbidity at 405 nm)", "format": "cell-based", "settings": "for growth inhibition rate: component (II) alone", "method": "Compounds of component (I) and component (II) were dissolved in dimethyl sulfoxide at 10,000 ppm and diluted with water to the prescribed concentration to prepare a chemical agent solution. A mixture of the prescribed concentration of the chemical agent solution, wheat leaf blight pathogen (Septoria tritici) conidia, and malt extract was prepared on a microplate and incubated at 20° C. in the dark for 3 days. The turbidity at a wavelength of 405 nm was measured with a microplate reader, and the growth of wheat leaf blight pathogen was compared with that of no treatment control to determine the growth inhibition rate. The results are shown in Tables 2 to 7, along with the expected values calculated as below.\nEach expected value was calculated from the fungicidal efficacy of a single application of the compound of component (I) and the fungicidal efficacy of a single application of compound of component (II) by using Colby's equation (S. R. Colby, Calculating synergistic and antagonistic responses of herbicide combinations, Weeds, 15, 20-22 pp (1967)).\n[formula] • where E represents the expected value of the growth inhibition rate (%) for the composition containing component (I) and component (II), M represents the growth inhibition rate (%) when the component (I) is used alone, and N represents the growth inhibition rate (%) when the component (II) is used alone. When the measured growth inhibition rate (%) for the composition containing component (I) and component (II) is greater than the expected value E, the composition containing components (I) and component (II) should exert a synergistic effect."}, "[2]": {"tested_on": "soybean rust pathogen (Phakopsora pachyrhizi)", "assay": "Soybean rust control test (leaf discs)", "format": "in vivo"}, "[3]": {"tested_on": "cucumber anthracnose pathogen (Colletotrichum lagenarium)", "assay": "Fungicidal test for cucumber anthracnose (microplate, turbidity at 405 nm)", "format": "cell-based", "method": "The compounds were dissolved in dimethyl sulfoxide to prepare a chemical agent solution.\nA mixture of the prescribed concentration of the chemical agent solution, cucumber anthracnose pathogen (Colletotrichum lagenarium) conidia, and Vogel medium was prepared on a microplate and incubated at 20° C. in the dark for 7 days.\nEach expected value was calculated using Colby's equation:\n[formula] • where E represents the expected value of the growth inhibition rate (%), M represents the growth inhibition rate (%) when the component (I) is used alone, and N represents the growth inhibition rate (%) when the component (II) is used alone."}}, "data": [{"smiles": "CCON=C1CN(C(=O)C(C)c2ccc(-c3noc(C(F)(F)F)n3)cc2)C1", "note": "(stereo not shown) [Compound 6]", "values": [{"measurement": "inhibition at 6.3 ppm", "setting": "[1]; Zymoseptoria tritici, component (I) alone, 6.3 ppm, read-out: growth inhibition rate", "result": 47, "unit": "%"}, {"measurement": "inhibition at 12.5 ppm", "setting": "[1]; Zymoseptoria tritici, component (I) alone, 12.5 ppm, read-out: growth inhibition rate", "result": 58, "unit": "%"}, {"measurement": "inhibition at 25 ppm", "setting": "[1]; Zymoseptoria tritici, component (I) alone, 25 ppm, read-out: growth inhibition rate", "result": 63, "unit": "%"}, {"measurement": "inhibition at 50 ppm", "setting": "[1]; Zymoseptoria tritici, component (I) alone, 50 ppm, read-out: growth inhibition rate", "result": 64, "unit": "%"}, {"measurement": "inhibition at 100 ppm", "setting": "[1]; Zymoseptoria tritici, component (I) alone, 100 ppm, read-out: growth inhibition rate", "result": 69, "unit": "%"}, {"measurement": "control value", "setting": "[2]; component (I) alone, 0.0063 ppm", "result": 19, "unit": "%"}, {"measurement": "control value", "setting": "[2]; component (I) alone, 0.025 ppm", "result": 49, "unit": "%"}, {"measurement": "control value", "setting": "[2]; component (I) alone, 0.1 ppm", "result": 76, "unit": "%"}, {"measurement": "control value", "setting": "[2]; component (I) alone, 0.4 ppm", "result": 98, "unit": "%"}, {"measurement": "inhibition at 0.025 ppm", "setting": "[3]; Colletotrichum orbiculare, Compound 6 alone, 0.025 ppm, read-out: growth inhibition rate", "result": 32, "unit": "%"}, {"measurement": "inhibition at 0.1 ppm", "setting": "[3]; Colletotrichum orbiculare, Compound 6 alone, 0.1 ppm, read-out: growth inhibition rate", "result": 67, "unit": "%"}, {"measurement": "inhibition at 0.4 ppm", "setting": "[3]; Colletotrichum orbiculare, Compound 6 alone, 0.4 ppm, read-out: growth inhibition rate", "result": 86, "unit": "%"}]}, {"smiles": "COc1ccnc(C(=O)N[C@@H](C)C(=O)O[C@@H](C)C(c2ccc(F)cc2)c2ccc(F)cc2)c1OC(C)=O", "note": "[Florylpicoxamid, florylpicoxamid, reference compound]", "values": [{"measurement": "growth inhibition rate", "setting": "[1]; 0.001 ppm", "result": 80, "unit": "%"}, {"measurement": "growth inhibition rate", "setting": "[1]; .0002 ppm (also printed 0002)", "result": 70, "unit": "%"}, {"measurement": "control value", "setting": "[2]; Table 14, component (II) alone (component (I): None): Inpyrfluxam 0.00025, Chlorothalonil 0.006, Thiophanate-methyl 0.0001, Tebuconazole 0.000025, Trifloxystrobin 0.0001, Fluazinam 0.006, Prothioconazole 0.000025, Florylpicoxamid 0.0001, Metominostrobin 0.0004 ppm", "result": 27, "unit": "%"}, {"measurement": "control value", "setting": "[2]; Table 15, component (II) alone (component (I): None): Azoxystrobin 0.0001, Inpyrfluxam 0.000025, Chlorothalonil 0.0063, Difenoconazole 0.000025, Cyproconazole 0.000025, Tebuconazole 0.000025, Trifloxystrobin 0.0001, Pyraclostrobin 0.0001, Fluazinam 0.0063, Fluxapyroxad 0.000025, Prothioconazole 0.000025, Florylpicoxamid 0.0001, Benzovindiflupyr 0.000025, Mancozeb 0.0063 ppm", "result": 0, "unit": "%"}, {"measurement": "control value", "setting": "[2]; Table 16, component (II) alone (component (I): None): Inpyrfluxam 0.000025, Chlorothalonil 0.006, Thiophanate-methyl 0.0001, Tebuconazole 0.000025, Trifloxystrobin 0.0001, Fluazinam 0.006, Prothioconazole 0.000025, Florylpicoxamid 0.0001, Metominostrobin 0.0004 ppm", "result": 27, "unit": "%"}, {"measurement": "control value", "setting": "[2]; Table 17, component (II) alone (component (I): None): Inpyrfluxam 0.000026, Chlorothalonil 0.02, Thiophanate-methyl 0.0004, Tebuconazole 0.0001, Trifloxystrobin 0.0001, Fluazinam 0.006, Prothioconazole 0.000025, Florylpicoxamid 0.0001, Metominostrobin 0.0004 ppm", "result": 27, "unit": "%"}, {"measurement": "control value", "setting": "[2]; Table 18, component (II) alone (component (I): None): Azoxystrobin 0.0001, Inpyrfluxam 0.000025, Chlorothalonil 0.0063, Difenoconazole 0.000025, Cyproconazole 0.000025, Tebuconazole 0.000025, Trifloxystrobin 0.0001, Pyraclostrobin 0.0001, Fluazinam 0.0063, Fluxapyroxad 0.000025, Prothioconazole 0.000025, Florylpicoxamid 0.0001, Benzovindiflupyr 0.000025, Mancozeb 0.0063 ppm", "result": 0, "unit": "%"}, {"measurement": "growth inhibition rate", "setting": "[3]; Table 19, component (II) alone (component (I): None): Ipflufenoquin 0.000026, Iminoctadine trialbesilate 0.0032, Cyflufenamid 10, Cyprodinil 0.00013, Potassium bicarbonate 0.08, Thiophanate-methyl 0.08, Picarbutrazox 0.016, Fludioxonil 0.0032, Florylpicoxamid 0.0032, Metyltetraprole 0.08, Mefentrifluconazole 0.4 ppm", "result": 0, "unit": "%"}, {"measurement": "growth inhibition rate", "setting": "[3]; Table 20, component (II) alone (component (I): None): Ipflufenoquin 0.00064, Iminoctadine trialbesilate 0.0032, Cyflufenamid 10, Cyprodinil 0.00013, Potassium bicarbonate 0.08, Thiophanate-methyl 0.4, Picarbutrazox 0.016, Fludioxonil 0.0032, Florylpicoxamid 0.0032, Metyltetraprole 0.08, Mefentrifluconazole 0.4 ppm", "result": 0, "unit": "%"}, {"measurement": "growth inhibition rate", "setting": "[3]; Table 21, component (II) alone (component (I): None): Ipflufenoquin 0.00064, Iminoctadine trialbesilate 0.0032, Cyflufenamid 10, Cyprodinil 0.00013, Potassium bicarbonate 0.08, Thiophanate-methyl 0.4, Picarbutrazox 0.00064, Fludioxonil 0.0032, Florylpicoxamid 0.0032, Metyltetraprole 0.08, Mefentrifluconazole 0.4 ppm", "result": 0, "unit": "%"}, {"measurement": "growth inhibition rate", "setting": "[3]; Table 22, component (II) alone (component (I): None): Ipflufenoquin 0.00064, Iminoctadine trialbesilate 0.0032, Cyflufenamid 10, Cyprodinil 0.00013, Potassium bicarbonate 0.08, Thiophanate-methyl 0.4, Picarbutrazox 0.00064, Fludioxonil 0.0032, Florylpicoxamid 0.0032, Metyltetraprole 0.08, Mefentrifluconazole 0.4 ppm", "result": 0, "unit": "%"}, {"measurement": "growth inhibition rate", "setting": "[3]; Table 23, component (II) alone (component (I): None): Ipflufenoquin 0.00064, Iminoctadine trialbesilate 0.0032, Cyflufenamid 10, Cyprodinil 0.000026, Potassium bicarbonate 0.08, Thiophanate-methyl 0.4, Picarbutrazox 0.00064, Fludioxonil 0.00064, Florylpicoxamid 0.0032, Metyltetraprole 0.08, Mefentrifluconazole 0.4 ppm", "result": 0, "unit": "%"}, {"measurement": "growth inhibition rate", "setting": "[3]; Table 24, component (II) alone (component (I): None): Ipflufenoquin 0.00064, Iminoctadine trialbesilate 0.0032, Cyflufenamid 10, Cyprodinil 0.00013, Potassium bicarbonate 0.08, Thiophanate-methyl 0.4, Picarbutrazox 0.00064, Fludioxonil 0.00013, Florylpicoxamid 0.0032, Metyltetraprole 0.08, Mefentrifluconazole 0.4 ppm", "result": 0, "unit": "%"}]}]}
